From patent publication US20110097332A1, “Composition and Method of Use for HCV Immunization” (priority 2007, published 2011) come the findings set out here.

The subject of data set [1] is HCV E2. As to the kind of experiment: in vitro phosphorylation assay of AP50 by recombinant E2 (cell-free, 32P ATP). The class given is biochemical. The following applies: peptide added to the phosphorylation assay. How it is done:
AP50 was immunopurified from untransfected primary hepatocytes and subjected to heat inactivation of any associated kinases. Recombinant wild type or mutated E2 were combined with AP50 in the presence of ^32P ATP (MP Biomedicals cat. #35020) and kinase buffer (50 mM Tris-HCL, pH 7.5, 5 mM MgCl2). The reaction was incubated at room temperature for 1 hour, and run on an SDSPAGE, transferred to a membrane and exposed to film overnight, as described previously (8; 57; 63).

The subject of data set [2] is E2. As to the kind of experiment: binding of the mutant AP50 peptide to E2. Set-up: species or system HCV.
Data set [3] relates to HCV-infected primary human hepatocytes. As to the kind of experiment: cell permeability and co-localization with E2 in HCV-infected primary human hepatocytes (immuno-staining, FITC tag). The class given is cell-based. From the text: (§1) Hepatocytes were obtained (from Tissue Transformation Technologies [Edison, N.J.]) from anonymous organ donors without liver disease that were not suitable for liver transplantation for technical but not medical reasons. These donors are negative For Hepatitis A, B and C, CMV, HIV, HTLV ½, and RPR-STS. Hepatocytes cultures with >5% apoptosis by annexin-V assays and/or increases >3-fold in ALT were discarded.
(§2) Hepatocytes were isolated from an encapsulated liver sample by a modified two-step perfusion technique introduced by Seglen (63). Briefly, the dissected lobe was placed into a custom-made perfusion apparatus and two to five hepatic vessels were cannulated with tubing attached to a multi-channel manifold. A liver fragment (150 to 500 g) was perfused initially (recirculation technique) with calcium-free HBSS supplemented with 0.5 mM EGTA for 20 to 30 min and then with 0.05% collagenase [Sigma] dissolved in L-15 medium (with calcium) at 37° C. until the tissue was fully digested. The digested liver was removed, immediately cooled with ice-cold L-15 medium and the cell suspension was strained through serial progressively smaller stainless steel sieves, with a final filtration through 100-micron and 60-micron nylon mesh. The filtered cell suspension was aliquoted into 250-ml tubes and centrifuged three times at 40 g for 3 min at 4° C. After the last centrifugation, the cells were re-suspended, in HypoThermosol-FRS [BioLife Solutions, Inc] combined in one tube and placed on ice.
Cells were centrifuged at 700 rpm for 5 min at 4° C., the supernatant was removed and the cells were washed with Hanks Wash Solution ([…] KCl 0.4 g/l; 4.4 mM KH2PO 0.06 g/l; […] NaCl 8 g/l; 3.4 mM Na2HPO4 0.048 g/l; 20 μL CaCl2 (2M)) three times. […]
Fluorescent labels were observed using a triple-channel fluorescence microscope or a laser scanning confocal microscope. […] At least 100 cells were analyzed per experimental point (9). The nuclear morphology was analyzed by staining cells with TOPRO-3 (R&D Systems).

The subject of data set [4] is HCV genotypes 1, 3, and 4. Nature of the data set: HCV infection/replication in primary human hepatocytes, HCV RNA by RT-PCR. The format is cell-based.
Text: as §1
as §2, with “After the last centrifugation, the cells were re-suspended, in HypoThermosol-FRS [BioLife Solutions, Inc] combined in one tube and placed on ice.” left out

In data set [5] the test system is HCV-infected primary human hepatocytes. Nature of the data set: cell toxicity (LDH in medium) of HCV-infected primary human hepatocytes. The class given is cell-based. The method, then:
Toxicity of HCV E2 mutants to human hepatocyte cultures was determined by measuring lactic dehydrogenase (LDH) (Sigma) and alanine aminotransferase (ALT) (Weiner Laboratories) in the medium. Positive (Jo2 Ab) and negative (untreated cells) control samples were determined in parallel. LDH assays of culture media were measurements of cellular leakage that indicates cell injury. ALT was enriched in hepatocytes and it's presence in serum or cell culture media was a classic indicator of hepatocyte injury. Indeed, it is the FDA's gold standard for hepatocellular toxicity.

Data set [6] addresses HCV E2 Y228E mutant (hepatitis C virus (HCV), UniProt P26664 384-746, Y228E). Nature of the data set: co-immunopurification with anti-cyclin G antibodies, primary mouse hepatocytes.
The target in data set [7] is HCV E2 Y228F mutant (hepatitis C virus (HCV), UniProt P26664 384-746, Y228F). The data set is described as above.
The mark [8] stands for this setting: listed as dominant negative peptide of the AP50 phospho-acceptor.
Setting [9] is: primary hepatocyte infection system.

Entries after “also recorded” stand apart in the source; their conditions may differ. Read-outs that look alike come from different tables or passages of the source. Primed or numbered codes have the meaning given here. FITC′ = not defined here

In the case of “NH2-QGEVQRRRQRRKKRGYGGGG-FITC (H-QGEVQRRRQRRKKRGYGGGG-{FITC′}) [AP50 peptide]”, the “auto-phosphorylation of E2” value in data set [1] is “unaffected”. For the same molecule, the “phosphorylation of AP50 by recombinant E2 (E2 kinase activity)” value is recorded as “blocks the in vitro kinase activity of E2” in data set [1] (setting [8]), “blocked” in data set [1] (listed as dominant negative peptide of the E2 consensus phosphorylation site) and “able to block the phosphorylation of AP50 by recombinant E2 in vitro; also recorded: blocks AP50 phosphorylation by E2” in data set [1] (listed as mutant AP50 peptide). In addition, the “binding to E2” value in data set [2] was “high affinity”. The cell permeability result in data set [3] is “cell permeable”. Besides, the “co-localization / association with HCV E2” value in data set [3] is “co-localized with HCV E2”; in data set [3] (setting [8]), “associates with E2”. For the same molecule, the “HCV replication (HCV RNA by RT-PCR)” value in data set [4] (peptide added at the time of HCV infection, genotypes 1, 3, and 4) is “inhibits HCV replication of genotypes 1, 3, and 4”. Moreover, the HCV infection entry in data set [4] (setting [9]) is recorded as “inhibits HCV infection”. In data set [5] (120 hours, in the presence of the peptide), the “toxicity at termination of the experiment” value is given as “comparable to that of uninfected cells”. Also, the “LDH levels (hepatocyte toxicity)” value in data set [5] (peptide added to the media at 72 hours post HCV infection) was “LDH levels began to decrease”. Besides, in data set [5] (setting [9]), the “hepatocyte toxicity induced by the peptide” value is reported as “without inducing hepatocyte toxicity”.

B1: cyclin G, endogenous, in primary mouse hepatocytes (other)
chain: MIEVLTTDSQKLLHQLNTLLEQESRCQPKVCGLKLIESAHDNGLRMTARLRDFEVKDLLSLTQFFGFDTETFSLAVNLLDRFLSKMKVQAKHLGCVGLSCFYLAVKATEEERNVPLATDLIRISQYRFTVSDLMRMEKIVLEKVCWKVKATTAFQFLQLYYSLVHDTLPFERRNDLNFERLEAQLKACHCRIIFSKAKPSVLALSILALEIQALKYVELTEGVECIQKHSKISGRDLTFWQELVSKCLTEYSSNKCSKPNGQKLKWIVSGRTARQLKHSYYRITHLPTIPETIC
Take B1: the binding result in data set [6] and in data set [7] was “no binding” each time.
